Measurements reported in patent US12486246B2, “Replication protein A (RPA)-DNA interaction inhibitors” (THE TRUSTEES OF INDIANA UNIVERSITY, priority 2019, dated 2025).

Columns and labels:
[1] = target: T1, RPA-AB construct (RPA70 AB domain) (Homo sapiens, UniProt P27694); assay: Differential scanning fluorimetry (DSF); format: binding
T1 construct: The DBD-A/B construct was expressed as a His6-RPA181-422 fusion protein; His6 (N); made in house; host or cells: E. coli BL21 (DE3)
Description: (§1) In order to probe the potential role of DNA intercalation as a mechanism for RPA inhibition, compounds 19, 23, 26, 27, 43 and 45 were analyzed using FID assay along with doxorubicin (Dox) as a positive control. […] In addition, direct binding of 9 derivatives to the target protein was assessed using a differential scan fluorimetry (DSF) assay. This assay assesses the melting profile of a protein at increasing temperatures via fluorescent dye binding. The direct interaction of a small molecule to the target protein can either increase or decrease the melting temperature (Tm) of the target depending on the specific protein and their interactions. […] Heparin sulfate, a known RPA interacting molecule often used in the purification of the protein was used as a control. […] (data not shown). […] (FIG. 1B).
The interaction of compound 43 with RPA-AB constructs was performed by differential scanning fluorimetry using GloMelt™ Dye (Biotum). […] Reactions were run in an ABI 7500 real time PCR machine with temperature increasing from 25° C. to 99° C. at a 2% ramp (˜40 minutes) and fluorescence of the reporter was measured on the SYBR® Green setting. […] Data was uploaded to TSA-CRAFT software and Tm calculated as described by Lee et al. Heparin was employed as a positive control of binding to the AB-box of RPA.

[2] = target: T2, full length heterotrimeric human RPA (Homo sapiens, UniProt P27694); assay: Electrophoretic mobility shift assay (EMSA), binding of full length human RPA to ssDNA; conditions: for IC50: full length human RPA binding to DNA, mean ± SD of minimum triplicate experiments
T2 construct: Full length, heterotrimeric human RPA (fl-RPA) and DBD-A/B constructs were expressed and purified; made in house
T2 sequence (P27694 whole entry): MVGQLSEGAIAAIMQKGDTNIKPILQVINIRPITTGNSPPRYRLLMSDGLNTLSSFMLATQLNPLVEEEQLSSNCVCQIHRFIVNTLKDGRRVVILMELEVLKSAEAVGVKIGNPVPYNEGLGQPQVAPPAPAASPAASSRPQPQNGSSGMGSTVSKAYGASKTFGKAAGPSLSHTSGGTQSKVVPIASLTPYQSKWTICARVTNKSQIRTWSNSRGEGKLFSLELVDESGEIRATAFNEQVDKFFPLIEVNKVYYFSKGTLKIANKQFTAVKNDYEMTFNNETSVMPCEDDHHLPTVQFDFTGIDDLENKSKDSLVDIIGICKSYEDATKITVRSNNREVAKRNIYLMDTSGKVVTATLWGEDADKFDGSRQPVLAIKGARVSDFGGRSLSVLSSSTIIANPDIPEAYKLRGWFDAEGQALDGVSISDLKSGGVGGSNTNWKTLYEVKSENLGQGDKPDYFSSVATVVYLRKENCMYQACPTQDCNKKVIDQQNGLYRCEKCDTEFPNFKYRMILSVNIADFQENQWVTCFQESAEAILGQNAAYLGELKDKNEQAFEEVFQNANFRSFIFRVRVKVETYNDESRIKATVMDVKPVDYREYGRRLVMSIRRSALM
T2 sequence (P15927 whole entry partner): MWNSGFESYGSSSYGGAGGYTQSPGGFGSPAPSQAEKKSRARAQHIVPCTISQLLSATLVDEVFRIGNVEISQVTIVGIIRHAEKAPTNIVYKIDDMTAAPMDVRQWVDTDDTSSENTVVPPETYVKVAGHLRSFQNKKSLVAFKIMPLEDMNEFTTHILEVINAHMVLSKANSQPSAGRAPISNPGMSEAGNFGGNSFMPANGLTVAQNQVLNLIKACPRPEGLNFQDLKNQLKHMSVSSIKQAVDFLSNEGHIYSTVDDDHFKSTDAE
T2 sequence (P35244 whole entry partner): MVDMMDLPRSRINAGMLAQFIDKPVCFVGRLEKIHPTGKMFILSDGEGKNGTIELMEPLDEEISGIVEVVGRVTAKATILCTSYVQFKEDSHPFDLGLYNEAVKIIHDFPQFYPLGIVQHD
Description: (§2) Full length, heterotrimeric human RPA (fl-RPA) and DBD-A/B constructs were expressed and purified according to previously described protocol. The DBD-A/B construct was expressed as a His6-RPA181-422 fusion protein. E. coli BL21 (DE3) cells in log growth were induced for 3 h with 0.5 mM IPTG at 37° C. The cells were lysed via sonication in buffer containing 20 mM Tris pH 7.5, 500 mM NaCl, 10 mM b-mercaptoethanol, supplemented with 25 μg/mL lysozyme, 1 μg/mL leupeptin, 1 μg/mL pepstatin and 0.5 mM PMSF. The lysate was applied to a 20 mL phosphocellulose column equilibrated in the same buffer and the flow-through material collected, brought to 5 mM Imidazole and loaded onto a 2 ml Ni-NTA column. The column was washed and proteins eluted on with a gradient from 50 mM to 500 mM imidazole. Fractions were assessed by EMSA and SDS-PAGE and DBD-A/B containing fraction were pool, dialyzed against buffer containing 50 mM HEPES pH 7.0, 500 mM NaCl and 1 mM DTT and stored at −80° C.
(§3) EMSAs were carried out using previously described procedure with the following modification. EMSA reactions (20 μL) were performed with 50 nM fl-RPA and 2.5 nM 5′ [^32P]-labeled 34-base DNA in buffer containing 20 mM HEPES (pH 7.8), 1 mM DTT, 0.001% NP-40, 50 mM NaCl. Chemical compounds were suspended in DMSO and DMSO concentration in the reaction mixture was kept constant at 2% or below 5%. RPA was incubated with inhibitor or DMSO control in reaction buffer for 30 min before the addition of DNA. Reactions were incubated for 5 min at room temperature and products separated via 6% native polyacrylamide gel electrophoresis. The bound and unbound fractions were then quantified by phosphor-imager analysis using ImageQuant software (Molecular Dynamics, CA) and IC50 values calculated by non-linear regression using SigmPlot (Sysat). For EMSA reactions with RPA DBD-A/B, 150 nM DBD-A/B was used, and electrophoresis was performed at 4° C. All other conditions were identical to those described for the full-length RPA.
Purified full length heterotrimeric human RPA protein was used to screen a series of analogs in an electrophoretic mobility shift assay (EMSA) measuring direct binding to a ss-DNA substrate. Quantification of the EMSA data and additional concentration dependent analysis to measure IC50 values of newly synthesized analogs provided potential insight into the structure-activity relationships (Table 1 and 2). […] Fluorine and trifluoromethyl substituents were included in pyridinyl compounds 28-29.

[3] = Aqueous solubility in unbuffered water; format: physicochemical; conditions: 43, 44, 45, 46, 47 vs 9, 16, 26, 28, 29 respectively
Description: Aqueous solubility was determined by suspending compound in un-buffered water with stirring. Insoluble material was removed by sedimentation or filtration and soluble compound quantified by absorbance spectroscopy and LC/MS. pH dependence was determined by suspending compound in 10 mM citrate buffer at pH 4.0 or 10 mM phosphate […] as described above in the description.
The morpholine ring is commonly introduced into solvent exposed regions as a privileged solubilizing group to improve solubility or pharmacokinetic properties including metabolic stability of a prospective drug scaffold which is exemplified by many FDA approved drugs. Modifications on Ring A had less of an effect than the morpholino modifications at the alkyl carboxylic acid side chain. To determine the effect of pH on solubility, we prepared solution at 1 mM in citrate buffer at pH 4, phosphate buffer at pH 7 and carbonate buffer at pH 9.5.

[4] = test system: sonicated salmon sperm DNA; assay: Fluorescent intercalator displacement (FID) assay, SYBR-Green; format: binding; conditions: 25 mM MOPS pH 6.5
Description: The analysis of compound interactions with DNA was determined by inhibition of SYBR-Green intercalation into DNA as we have previously described. Briefly, reactions were performed in 25 mM MOPS (pH 6.5) containing sonicated salmon sperm DNA (8.29 ng/μL), SYBR-Green, and the indicated concentrations of RPA inhibitors. Reactions were conducted in black 96-well plates. Doxorubicin, a known noncovalent DNA binding chemotherapeutic, was used as a positive control. Fluorescence was measured using a BioTek® Synergy™ H1 hybrid multi-mode microplate reader with an excitation wavelength of 485 nm, emission wavelength of 528 nm, and a read height of 7 mm. Data were collected using BioTek® Gen5™ reader software. Reactions were incubated a maximum of 5 min before measurements were collected.
as §1

[5] = target: T3, RPA DBD-A/B construct (His6-RPA181-422 of RPA70) (Homo sapiens, UniProt P27694); assay: EMSA, binding of RPA DBD-A/B construct to DNA; conditions: mean ± SD, read-out: RPAA/B IC50
T3 construct: The DBD-A/B construct was expressed as a His6-RPA181-422 fusion protein; His6 (N); made in house; host or cells: E. coli BL21 (DE3)
T3 sequence (P27694 181-422): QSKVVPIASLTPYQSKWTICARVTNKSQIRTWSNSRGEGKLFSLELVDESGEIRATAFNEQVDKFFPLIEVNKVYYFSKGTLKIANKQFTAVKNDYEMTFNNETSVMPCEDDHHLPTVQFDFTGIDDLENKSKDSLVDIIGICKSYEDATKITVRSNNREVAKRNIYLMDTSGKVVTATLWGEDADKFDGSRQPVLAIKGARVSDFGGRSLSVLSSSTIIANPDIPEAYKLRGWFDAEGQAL
Description: as §2, §3
These domains are compact modular domains populated with hydrophobic and basic DNA binding amino acid residues and have great potential to influence binding of the compounds to the RPA70 subunit. RPA DBD-A/B construct was purified via Ni-affinity chromatography. The activity of compounds 23-27 was evaluated on purified DBD-A/B construct using EMSA.

T1 sequence (P27694 181-422): as above

| decrease in Tm [1] [°C] | IC50 [2] [µM] | aqueous solubility compared to carboxylic acid counterpart (in words) [3] | DNA binding activity (displacement of SYBR-Green intercalator) [4] | fold increase in activity compared to compound 22 ([2]; full length RPA) [fold] | IC50 [5] [µM] | Molecule |
| --- | --- | --- | --- | --- | --- | --- |
| 1.2 |  |  |  |  |  | heparin [reference compound] |
|  | 2.29 ± 0.31 | increased solubility |  |  |  | CCOc1ccc2cc(C3CC(c4ccc(-c5ccc(F)nc5)cc4)=NN3C(=O)CCCC(=O)NCCCN3CCOCC3)c(Cl)nc2c1 (centres unmarked) [Compound 46, 5-(5-(2-Chloro-7-ethoxyquinolin-3-yl)-3-(4-(6-fluoropyridin-3-yl)phenyl)-4,5-dihydro-1H-pyrazol-1-yl)-N-(3-morpholinopropyl)-5-oxopentanamide] |
|  | 2.1 ± 0.48 |  | No significant DNA binding activity | ~3.2 | 3.3 ± 0.07 | CCOc1ccc2cc(C3CC(c4ccc(-c5ccco5)cc4)=NN3C(=O)CCCC(=O)O)c(Cl)nc2c1 (centres unmarked) [Compound 23, 5-(5-(2-Chloro-7-ethoxyquinolin-3-yl)-3-(4-(furan-2-yl)phenyl)-4,5-dihydro-1H-pyrazol-1-yl)-5-oxopentanoic acid] |
|  | 4.06 ± 0.56 | increased solubility | No significant DNA binding activity |  |  | CCOc1ccc2cc(C3CC(c4ccc(-c5ccc(Cl)nc5)cc4)=NN3C(=O)CCCC(=O)NCCCN3CCOCC3)c(Cl)nc2c1 (centres unmarked) [Compound 45, 5-(5-(2-Chloro-7-ethoxyquinolin-3-yl)-3-(4-(6-chloropyridin-3-yl)phenyl)-4,5-dihydro-1H-pyrazol-1-yl)-N-(3-morpholinopropyl)-5-oxopentanamide] |
|  | 3.14 ± 0.23 |  |  |  | 16.4 ± 2.09 | CCOc1ccc2cc(C3CC(c4ccc(-c5ccc(N6CCOCC6)cc5)cc4)=NN3C(=O)CCCC(=O)O)c(Cl)nc2c1 (centres unmarked) [Compound 25, 5-(5-(2-Chloro-7-ethoxyquinolin-3-yl)-3-(4′-morpholino-[1,1′-biphenyl]-4-yl)-4,5-dihydro-1H-pyrazol-1-yl)-5-oxopentanoic acid] |
|  | 1.01 ± 0.6 |  | No significant DNA binding activity |  | 3.32 ± 0.016 | CCOc1ccc2cc(C3CC(c4ccc(-c5ccc(Br)nc5)cc4)=NN3C(=O)CCCC(=O)O)c(Cl)nc2c1 (centres unmarked) [Compound 27, 5-(3-(4-(6-Bromopyridin-3-yl)phenyl)-5-(2-chloro-7-ethoxyquinolin-3-yl)-4,5-dihydro-1H-pyrazol-1-yl)-5-oxopentanoic acid] |
|  | 1.71 ± 0.28 |  |  |  | 4.03 ± 0.28 | CCOc1ccc2cc(C3CC(c4ccc(-c5cnoc5)cc4)=NN3C(=O)CCCC(=O)O)c(Cl)nc2c1 (centres unmarked) [Compound 24, 5-(5-(2-Chloro-7-ethoxyquinolin-3-yl)-3-(4-(isoxazol-4-yl)phenyl)-4,5-dihydro-1H-pyrazol-1-yl)-5-oxopentanoic acid] |
